Reference: patent publication US9968084B2, “Synergistic herbicidal composition containing penoxsulam, triclopyr and imazethapyr” (Dow AgroSciences LLC, priority 2011, dated 2018)

How the values were obtained:
Test in all cases: Postemergence herbicidal activity of mixtures in the field (rice), visual weed control
Format in all cases: in vivo
[1] = test system: Caperonia palustris ST.-HIL. (CNPPA); conditions: imazamox 44 g ai/ha
Description: (§1) Evaluation of Postemergence Herbicidal Activity of Mixtures in the Field
(§2) Field trials were conducted in rice using standard herbicide small plot research methodology. Plot size was 2×6 meter (m) with 4 replicates per treatment. The rice crop was grown using normal cultural practices for fertilization, seeding, watering, flooding and maintenance to ensure good growth of the crop and the weeds.
(§3) All treatments in the field trials were applied using a compressed air backpack sprayer calibrated to apply 187 liters per hectare (L/ha) spray volume. Commercially available products of the premix penoxsulam plus triclopyr (GraspXTRA® herbicide, trademark of Dow AgroSciences LLC) and imazethapyr or imazamox were mixed in water at appropriately formulated product rates to achieve the desired rates based on a unit area of application (hectare) to achieve the desired rates as shown. The GraspXTRA herbicide is a product that contains 0.25 lb penoxulam and 2.06 lb triclopyr triethylamine salt (1.5 lb acid equivalent) per gallon, so the weight ratio of the penoxulam to triclopyr acid equivalent is 1:6. Imazethapyr was used as Newpath 240 SL. imazamox was used as Beyond 120 SL. Treatments were rated at 15 to 63 days after application as compared to the untreated control plants. Visual weed control was scored on a scale of 0 to 100 percent where 0 corresponds to no injury and 100 corresponds to complete kill.
(§4) All treatment results, both for the single premix product, the single entity product and mixtures, are an average of 4 replicates and the tank mix interactions are significant at the […] level.
(§5) Colby's equation was used to determine the herbicidal effects expected from the mixtures (Colby, S. R. Calculation of the synergistic and antagonistic response of herbicide combinations. Weeds 1967, 15, 20-22.).
(§6) The following equation was used to calculate the expected activity of mixtures containing two active ingredients, A and B: Expected=A+B−(A×B/100)
(§7) A=observed efficacy of active ingredient A at the same concentration as used in the mixture.
(§8) B=observed efficacy of active ingredient B at the same concentration as used in the mixture.
(§9) All comparisons are an average of 4 replicates and are significant at the […] level. Rates of penoxsulam, triclopyr and imazethapyr or imazamox are expressed in grams active ingredient/hectare (g ai/ha).

[2] = test system: Echinochloa crus-galli (ECHCG)
Description: as §1, §2, §3, §4, §5, §6, §7, §8, §9

[3] = test system: Brachiaria platyphylla (GRISEB.) NASH (BRAPP); conditions: imazamox 44 g ai/ha
Description: as §1, §2, §3, §4, §5, §6, §7, §8, §9

Setaria spp. (SETSS) = conditions: imazethapyr 70 g ai/ha
Description: as §1, §2, §3, §4, §5, §6, §7, §8, §9

SMILES	% Control 43 DAA CNPPA Ob [1] [%]	% Control 43 DAA ECHCG Ob ([2]; imazamox 44 g ai/ha, 43 DAA) [%]	% Control 41 DAA BRAPP Ob [3] [%]	% Control 15DAA ECHCG Ob ([2]; imazethapyr 70 g ai/ha, 15 DAA) [%]	% Control 63DAA ECHCG Ob ([2]; imazethapyr 70 g ai/ha, 63 DAA) [%]	% Control 15DAA SETSS Ob (Setaria spp. (SETSS); 15 DAA) [%]	% Control 63DAA SETSS Ob (Setaria spp. (SETSS); 63 DAA) [%]
COCc1cnc(C2=NC(C)(C(C)C)C(=O)N2)c(C(=O)O)c1 (stereo not shown) [Imazamox, 2-[4,5-dihydro-4-methyl-4-(1-methylethyl)-5-oxo-1H-imidazol-2-yl]-5-(methoxymethyl)-3-pyridinecarboxylic acid]	0	78	61	–	–	–	–
CCc1cnc(C2=NC(C)(C(C)C)C(=O)N2)c(C(=O)O)c1 (stereo not shown) [Imazethapyr, 2-[4,5-dihydro-4-methyl-4-(1-methylethyl)-5-oxo-1H-imidazol-2-yl]-5-ethyl-3-pyridinecarboxylic acid]	–	–	–	69	36	69	36
